Paper PMC5933782, “Molecular structures of cdc2-like kinases in complex with a new inhibitor chemotype” (PLoS ONE, 2018)

Assays:
Assay in all cases: NCI cancer cell line screening
Format in all cases: cell-based
HS 578T = settings: Homo sapiens, Breast Cancer
Procedure: (§1) Being the most promising compound in terms of CLK1 inhibitory potency and selectivity, KuWal151 (8c) was tested in the National Cancer Institute cancer cell line screening on 57 tumor cell lines of different tissue origin [45]. With only a few exceptions, KuWal151 inhibited the growth of most cell lines in submicromolar concentrations. In Table 2 the cancer cell line inhibition data is listed with the expression rates of SPF45 and CLK1 as indicated in the Expression Atlas database (https://www.ebi.ac.uk/gxa/home). Apparently the cell lines with high levels of CLK1 encoding RNA are inhibited over average. […] However, the available data are not sufficient to construe a clear relationship between the expression levels of the putative target CLK1 and sensitivity of the cell lines against 8c. The same holds true for SPF45, an important substrate of CLK1 involved in splicing which is found to be overexpressed in many cancer cell lines. […] The lack of a straight relationship between CLK1 and/or SPF45 expression levels on the one hand and sensitivity against the CLK1 inhibitor 8c on the other hand may have various reasons, e.g. different uptake rates of the inhibitor by the cells or alternative intracellular targets. For verification of the results from the NCI screening, which is based on the in situ fixation of cells followed by staining with the protein-binding dye sulforhodamin B [47, 48], 8c was also tested on two cell lines of the NCI panel (HT-29 and MDA-MB-231) in a crystal violet assay.

HCT-15 = settings: Homo sapiens; HCT-15, Colon Cancer
Procedure: as §1

EKVX = settings: Homo sapiens, Non-Small Cell Lung Cancer
Procedure: as §1

SF-295 = settings: Homo sapiens; SF-295, CNS Cancer
Procedure: as §1

A498 = settings: Homo sapiens; A498, Renal Cancer
Procedure: as §1

NCI-H522 = settings: Homo sapiens; NCI-H522, Non-Small Cell Lung Cancer
Procedure: as §1

SK-MEL-28 = settings: Homo sapiens; SK-MEL-28, Melanoma
Procedure: as §1

SR = settings: Homo sapiens, Leukemia
Procedure: as §1

SF-539 = settings: Homo sapiens; SF-539, CNS Cancer
Procedure: as §1

HCC-2998 = settings: Homo sapiens; HCC-2998, Colon Cancer
Procedure: as §1

T-47D = settings: Homo sapiens, T47D, Breast Cancer
Procedure: as §1

MDA-MB-468 = settings: Homo sapiens; MDA-MB-468, Breast Cancer
Procedure: as §1

NCI-H23 = settings: Homo sapiens; NCI-H23, Non-Small Cell Lung Cancer
Procedure: as §1

NCI-H322M = settings: Homo sapiens, Non-Small Cell Lung Cancer
Procedure: as §1

SW-620 = settings: Homo sapiens; SW-620, Colon Cancer
Procedure: as §1

RPMI-8226 = settings: Homo sapiens; RPMI-8226, Leukemia
Procedure: as §1

OVCAR-4 = settings: Homo sapiens; OVCAR-4, Ovarian Cancer
Procedure: as §1

NCI/ADR-RES = settings: Homo sapiens, Ovarian Cancer
Procedure: as §1

CCRF-CEM = settings: Homo sapiens, Leukemia
Procedure: as §1

IGROV1 = settings: Homo sapiens, IGROV-1; IGROV1, Ovarian Cancer
Procedure: as §1

DU-145 = settings: Homo sapiens; DU-145, Prostate Cancer
Procedure: as §1

PC-3 = settings: Homo sapiens; PC-3, Prostate Cancer
Procedure: as §1

SNB-19 = settings: Homo sapiens; SNB-19, CNS Cancer
Procedure: as §1

A549/ATCC = settings: Homo sapiens, Non-Small Cell Lung Cancer
Procedure: as §1

OVCAR-3 = settings: Homo sapiens; OVCAR-3, Ovarian Cancer
Procedure: as §1

UO-31 = settings: Homo sapiens; UO-31, Renal Cancer
Procedure: as §1

MDA-MB-231/ATCC = settings: Homo sapiens, Breast Cancer
Procedure: as §1

UACC-62 = settings: Homo sapiens; UACC-62, Melanoma
Procedure: as §1

HT29 = settings: Homo sapiens, HT-29; HT29, Colon Cancer
Procedure: as §1

RXF 393 = settings: Homo sapiens; RXF 393, Renal Cancer
Procedure: as §1

KM12 = settings: Homo sapiens; KM12, Colon Cancer
Procedure: as §1

NCI-H226 = settings: Homo sapiens; NCI-H226, Non-Small Cell Lung Cancer
Procedure: as §1

786–0 = settings: Homo sapiens; 786–0, Renal Cancer
Procedure: as §1

## O=C1NCc2ccc3c(-c4cccc(Cl)c4)c[nH]c3c21 [8c, 3-(3-Chlorophenyl)-6,7-dihydropyrrolo[3,4-g]indol-8(1H)-one]
HS 578T
  GI50: 204 nM
HCT-15
  GI50: 178 nM
EKVX
  GI50: 355 nM
SF-295
  GI50: 224 nM
A498
  GI50: 166 nM
NCI-H522
  GI50: 158 nM
SK-MEL-28
  GI50: 692 nM
SR
  GI50: 151 nM
SF-539
  GI50: 166 nM
HCC-2998
  GI50: 912 nM
T-47D
  GI50: 309 nM
MDA-MB-468
  GI50: 234 nM
NCI-H23
  GI50: 525 nM
NCI-H322M
  GI50: 2390 nM
SW-620
  GI50: 209 nM
RPMI-8226
  GI50: 288 nM
OVCAR-4
  GI50: 912 nM
NCI/ADR-RES
  GI50: 178 nM
CCRF-CEM
  GI50: 178 nM
IGROV1
  GI50: 427 nM
DU-145
  GI50: 316 nM
PC-3
  GI50: 339 nM
SNB-19
  GI50: 389 nM
A549/ATCC
  GI50: 389 nM
OVCAR-3
  GI50: 191 nM
UO-31
  GI50: 832 nM
MDA-MB-231/ATCC
  GI50: 1380 nM
UACC-62
  GI50: 275 nM
HT29
  GI50: 174 nM
RXF 393
  GI50: 457 nM
KM12
  GI50: 209 nM
NCI-H226
  GI50: 28800 nM
786–0
  GI50: 275 nM
